# “And” between values parts separate entries of the source, which are not always exact repeats. Identical values can stand only once.
# Assay: Clinical trial ERC-205: DHEA 50 mg daily versus placebo on hot flushes in postmenopausal women (Example 10)
# Type: in vivo
# Settings: for NUMBER OF MODERATE TO SEVERE HOT FLUSHES PER WEEK (MEAN) / WEIGHTED SEVERITY SCORE OF HOT FLUSHES PER WEEK (MEAN) / NUMBER OF ALL HOT FLUSHES PER WEEK (MEAN): 50 mg, strata ≥71 hot flushes per week at screening; for Number of all hot flushes per week, MEAN / Number of moderate to severe hot flushes per week, MEAN / Weighted severity score of hot flushes per week, MEAN / Mean change from baseline: Frequency of all HF / Mean change from baseline: Frequency of moderate-severe HF / Mean change from baseline: Weighted severity score of HF: DHEA 50 mg daily; for number of all hot flushes per week: women having more than 70 mild, moderate plus severe hot flushes
# Method: Postmenopausal women experiencing moderate or severe hot flushes per week (as determined by a two week diary) were randomized to receive a daily dose of either placebo or 50 mg DHEA. Fifty evaluable participants (25 patients per arm) were treated for four months with a daily assessment of hot flushes recorded in a diary completed by each participant.
# Postmenopausal women aged 40 to 70 years with moderate or severe hot flushes per week, as confirmed by a two-week screening hot flush diary were enrolled after signing informed consent. The protocol was approved by the Institutional Review Board (IRB) of Le Centre Hospitalier de l'Université Laval and by Health Canada.
# The primary endpoint was the change from Baseline in the weekly frequency of moderate to severe hot flushes at Week 16, after four months of treatment. The objectives also included the change from Baseline in the weekly frequency of all hot flushes and the change from Baseline in the weekly weighted severity score.
# The response endpoint is the patient's paper diary which was filled in daily to specify the number and type of hot flushes as follows:
# The hot flush diary began as a Screening diary for two weeks prior to randomization whereby patients had to complete the diary daily, recording the number and severity of hot flushes. The patients had to record an average of 50 or more moderate or severe hot flushes per week over the two-week period to be eligible (i.e., at least 100 hot flushes documented on the two week Screening diary).
# Once randomized, the patient completed eight, two-week hot flush diaries upon beginning study medication. The diaries had to be filled out on a daily basis. The first diary was completed over the first two weeks and be returned on the two week visit. The second two-week diary was completed over the next two weeks of the first four week treatment period and was returned at the four week visit. At 4, 8, 12 and 16 week visits, two two-week diaries for hot flushes were collected.
# [1] = Screening (mean of 2 w), baseline
# [2] = women having 71 or more hot flushes per week at screening
# [3] = women having between 50 and 70 per week
smiles,measurement,setting,value
"C[C@]12CC[C@H](O)CC1=CC[C@@H]1[C@@H]2CC[C@]2(C)C(=O)CC[C@@H]12 [DHEA, dehydroepiandrosterone]",NUMBER OF MODERATE TO SEVERE HOT FLUSHES PER WEEK (MEAN),Week 14,32.0
same,WEIGHTED SEVERITY SCORE OF HOT FLUSHES PER WEEK (MEAN),Week 14,96.6
same,NUMBER OF ALL HOT FLUSHES PER WEEK (MEAN),Week 15,38.8
same,NUMBER OF MODERATE TO SEVERE HOT FLUSHES PER WEEK (MEAN),Week 15,34.4
same,WEIGHTED SEVERITY SCORE OF HOT FLUSHES PER WEEK (MEAN),Week 15,103.6
same,NUMBER OF ALL HOT FLUSHES PER WEEK (MEAN),Week 16,36.3
same,NUMBER OF MODERATE TO SEVERE HOT FLUSHES PER WEEK (MEAN),Week 16,31.6
same,WEIGHTED SEVERITY SCORE OF HOT FLUSHES PER WEEK (MEAN),Week 16,95.2
same,"Number of all hot flushes per week, MEAN",[1],75.5±4.4 and 75.7
same,"Number of moderate to severe hot flushes per week, MEAN",[1],70.7±4.5 and 70.7
same,"Weighted severity score of hot flushes per week, MEAN",[1],187.1±13.9 and 187.1
same,"Number of all hot flushes per week, MEAN",Week 1,64.2
same,"Number of moderate to severe hot flushes per week, MEAN",Week 1,58.6
same,"Weighted severity score of hot flushes per week, MEAN",Week 1,156.0
same,"Number of all hot flushes per week, MEAN",Week 2,56.4
same,"Number of moderate to severe hot flushes per week, MEAN",Week 2,51.0
same,"Weighted severity score of hot flushes per week, MEAN",Week 2,137.5
same,"Number of all hot flushes per week, MEAN",Week 3,54.6
same,"Number of moderate to severe hot flushes per week, MEAN",Week 3,49.1
same,"Weighted severity score of hot flushes per week, MEAN",Week 3,132.5
same,Mean change from baseline: Frequency of all HF,Week 4,−20.4
same,Mean change from baseline: Frequency of moderate-severe HF,Week 4,−20.6
same,Mean change from baseline: Weighted severity score of HF,Week 4,−51.4
same,"Number of all hot flushes per week, MEAN",Week 4,55.3±5.8 and 55.3
same,"Number of moderate to severe hot flushes per week, MEAN",Week 4,50.1±5.7 and 50.1
same,"Weighted severity score of hot flushes per week, MEAN",Week 4,135.7
same,"Number of all hot flushes per week, MEAN",Week 5,49.8
same,"Number of moderate to severe hot flushes per week, MEAN",Week 5,44.4
same,"Weighted severity score of hot flushes per week, MEAN",Week 5,120.9
same,"Number of all hot flushes per week, MEAN",Week 6,47.9
same,"Number of moderate to severe hot flushes per week, MEAN",Week 6,43.0
same,"Weighted severity score of hot flushes per week, MEAN",Week 6,115.2
same,"Number of all hot flushes per week, MEAN",Week 7,44.5
same,"Number of moderate to severe hot flushes per week, MEAN",Week 7,39.6
same,"Weighted severity score of hot flushes per week, MEAN",Week 7,108.3
same,Mean change from baseline: Frequency of all HF,Week 8,−31.0
same,Mean change from baseline: Frequency of moderate-severe HF,Week 8,−30.1
same,Mean change from baseline: Weighted severity score of HF,Week 8,−76.9
same,"Number of all hot flushes per week, MEAN",Week 8,44.7±6.3 and 44.7
same,"Number of moderate to severe hot flushes per week, MEAN",Week 8,40.2±6.1 and 40.2
same,"Weighted severity score of hot flushes per week, MEAN",Week 8,109.4
same,"Number of all hot flushes per week, MEAN",Week 9,44.3
same,"Number of moderate to severe hot flushes per week, MEAN",Week 9,39.6
same,"Weighted severity score of hot flushes per week, MEAN",Week 9,106.5
same,"Number of all hot flushes per week, MEAN",Week 10,43.1
same,"Number of moderate to severe hot flushes per week, MEAN",Week 10,38.6
same,"Weighted severity score of hot flushes per week, MEAN",Week 10,104.5
same,"Number of all hot flushes per week, MEAN",Week 11,40.9
same,"Number of moderate to severe hot flushes per week, MEAN",Week 11,36.0
same,"Weighted severity score of hot flushes per week, MEAN",Week 11,98.2
same,Mean change from baseline: Frequency of all HF,Week 12,−36.2
same,Mean change from baseline: Frequency of moderate-severe HF,Week 12,−35.6
same,Mean change from baseline: Weighted severity score of HF,Week 12,−93.6
same,"Number of all hot flushes per week, MEAN",Week 12,39.5±5.9 and 39.5
same,"Number of moderate to severe hot flushes per week, MEAN",Week 12,34.7±5.8 and 34.7
same,"Weighted severity score of hot flushes per week, MEAN",Week 12,92.7
same,"Number of all hot flushes per week, MEAN",Week 13,37.5
same,"Number of moderate to severe hot flushes per week, MEAN",Week 13,33.2
same,"Weighted severity score of hot flushes per week, MEAN",Week 13,90.1
same,"Number of all hot flushes per week, MEAN",Week 14,37.6
same,"Number of moderate to severe hot flushes per week, MEAN",Week 14,33.3
same,"Weighted severity score of hot flushes per week, MEAN",Week 14,90.9
same,"Number of all hot flushes per week, MEAN",Week 15,37.5
same,"Number of moderate to severe hot flushes per week, MEAN",Week 15,34.0
same,"Weighted severity score of hot flushes per week, MEAN",Week 15,91.8
same,Mean change from baseline: Frequency of all HF,Week 16,−39.8
same,Mean change from baseline: Frequency of moderate-severe HF,Week 16,−38.1
same,Mean change from baseline: Weighted severity score of HF,Week 16,−99.1
same,"Number of all hot flushes per week, MEAN",Week 16,36.0±5.7 and 36.0
same,"Number of moderate to severe hot flushes per week, MEAN",Week 16,32.2±5.8 and 32.2
same,"Weighted severity score of hot flushes per week, MEAN",Week 16,87.2±15.8 and 87.2
same,reduction of the weighted severity score,"all women, week 16 (Table 18)",99.1±15.6
same,decrease in weighted severity score,at 16 weeks,53.4%
same,higher efficacy of DHEA than placebo on weighted severity score,at 16 weeks,3.0 fold
same,decrease in frequency of all hot flushes,screening to week 16,52.4%
same,decrease in number of moderate to severe hot flushes,screening to week 16,54.5%
same,decrease in moderate to severe hot flushes,[2],64.3%
same,greater inhibition by DHEA than placebo,[2],65%
same,mean number of moderate to severe hot flushes per week,"women having 71 or more hot flushes per week at screening, after DHEA treatment",31.6±11.6
same,mean number of moderate to severe hot flushes per week,"women having 71 or more hot flushes per week at screening, screening value",88.5±7.1
same,decrease in weighted severity score,women having between 50 and 70 hot flushes per week,43.5%
same,weighted severity score,"women having between 50 and 70 hot flushes per week, screening",144.3±6.7
same,weighted severity score,"women having between 50 and 70 hot flushes per week, week 16",81.6±13.6
same,decrease in moderate to severe hot flushes,[3],43.3%
same,inhibition by DHEA over the placebo effect,[3],43%
same,number of moderate to severe hot flushes per week,"women having between 50 and 70 per week, prescreening",56.7±1.3
same,number of moderate to severe hot flushes per week,"women having between 50 and 70 per week, week 6 as printed",32.7±6.2
same,decrease in number of all hot flushes,women having more than 70 hot flushes,60%
same,decrease in weighted severity score,women having more than 70 hot flushes per week,61.6%
same,weighted severity score,"women having more than 70 hot flushes per week, screening",241.6±21.1
same,weighted severity score,"women having more than 70 hot flushes per week, week 16",95.2±34.3
same,number of all hot flushes per week,prescreening,91.0±7.0
same,number of all hot flushes per week,week 16,36.3±11.5
same,greater efficacy of DHEA than placebo,women having the largest number of hot flushes of all degrees of severity,50%

# Source: US11452731B2, “Method of treating and preventing loss of cognition” (ENDORECHERCHE, INC., priority 2009, dated 2022)
